Laboratory results taken from US12590099B2, “Inhibitors of histone deacetylase useful for the treatment or prevention of HIV infection” (Merck Sharp & Dohme LLC, priority 2018, dated 2026).

Columns and labels:
[1] = molecular target: T1, Recombinant human HDAC3/SMRT heterodimer (Homo sapiens, UniProt O15379); assay: Human HDAC enzyme inhibitor Fluor-de-Lys assay, HDAC3/SMRT; assay type: biochemical; conditions: recombinant human HDAC3/SMRT, Fluor-de-Lys assay
T1 construct: FLAG (C); made in house
T1 sequence (O15379 whole entry): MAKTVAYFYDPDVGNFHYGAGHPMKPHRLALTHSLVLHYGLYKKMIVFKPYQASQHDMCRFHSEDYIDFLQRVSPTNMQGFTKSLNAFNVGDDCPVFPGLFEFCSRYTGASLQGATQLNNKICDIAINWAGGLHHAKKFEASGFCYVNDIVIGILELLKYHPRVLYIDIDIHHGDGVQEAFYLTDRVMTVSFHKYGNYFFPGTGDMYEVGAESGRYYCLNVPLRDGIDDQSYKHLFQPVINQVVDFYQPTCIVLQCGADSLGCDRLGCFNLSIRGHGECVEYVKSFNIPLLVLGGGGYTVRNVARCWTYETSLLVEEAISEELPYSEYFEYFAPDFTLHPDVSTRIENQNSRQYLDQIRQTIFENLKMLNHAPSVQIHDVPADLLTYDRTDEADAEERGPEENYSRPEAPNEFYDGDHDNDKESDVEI
T1 sequence (Q9Y618 1-899 partner limits assumed): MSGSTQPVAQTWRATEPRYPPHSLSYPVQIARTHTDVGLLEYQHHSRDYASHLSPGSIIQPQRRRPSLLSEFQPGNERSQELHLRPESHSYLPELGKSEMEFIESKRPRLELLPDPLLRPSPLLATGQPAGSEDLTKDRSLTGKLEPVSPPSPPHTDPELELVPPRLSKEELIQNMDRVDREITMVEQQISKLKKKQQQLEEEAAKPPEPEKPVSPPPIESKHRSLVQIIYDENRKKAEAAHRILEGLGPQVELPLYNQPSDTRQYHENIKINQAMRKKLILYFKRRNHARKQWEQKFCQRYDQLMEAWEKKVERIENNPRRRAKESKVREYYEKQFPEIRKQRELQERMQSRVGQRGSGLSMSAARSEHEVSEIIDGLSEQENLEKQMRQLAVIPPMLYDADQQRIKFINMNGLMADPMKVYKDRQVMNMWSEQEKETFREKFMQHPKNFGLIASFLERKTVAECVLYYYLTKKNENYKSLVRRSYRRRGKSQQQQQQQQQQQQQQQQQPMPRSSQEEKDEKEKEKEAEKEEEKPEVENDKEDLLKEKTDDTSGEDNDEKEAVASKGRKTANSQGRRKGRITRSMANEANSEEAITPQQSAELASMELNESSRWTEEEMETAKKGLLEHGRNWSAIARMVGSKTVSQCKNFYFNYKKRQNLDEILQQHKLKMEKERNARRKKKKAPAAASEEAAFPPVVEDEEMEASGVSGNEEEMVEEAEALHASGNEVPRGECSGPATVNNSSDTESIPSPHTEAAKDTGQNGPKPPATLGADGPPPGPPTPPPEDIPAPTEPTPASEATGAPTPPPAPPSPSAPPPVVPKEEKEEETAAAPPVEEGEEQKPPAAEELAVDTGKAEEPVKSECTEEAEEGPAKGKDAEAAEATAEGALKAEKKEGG

[2] = molecular target: T2, HDAC6 (Homo sapiens, UniProt Q9UBN7); assay: Human HDAC enzyme inhibitor Fluor-de-Lys assay, HDAC6; assay type: biochemical; conditions: HDAC6, Fluor-de-Lys assay
T2 sequence (Q9UBN7 1-1215): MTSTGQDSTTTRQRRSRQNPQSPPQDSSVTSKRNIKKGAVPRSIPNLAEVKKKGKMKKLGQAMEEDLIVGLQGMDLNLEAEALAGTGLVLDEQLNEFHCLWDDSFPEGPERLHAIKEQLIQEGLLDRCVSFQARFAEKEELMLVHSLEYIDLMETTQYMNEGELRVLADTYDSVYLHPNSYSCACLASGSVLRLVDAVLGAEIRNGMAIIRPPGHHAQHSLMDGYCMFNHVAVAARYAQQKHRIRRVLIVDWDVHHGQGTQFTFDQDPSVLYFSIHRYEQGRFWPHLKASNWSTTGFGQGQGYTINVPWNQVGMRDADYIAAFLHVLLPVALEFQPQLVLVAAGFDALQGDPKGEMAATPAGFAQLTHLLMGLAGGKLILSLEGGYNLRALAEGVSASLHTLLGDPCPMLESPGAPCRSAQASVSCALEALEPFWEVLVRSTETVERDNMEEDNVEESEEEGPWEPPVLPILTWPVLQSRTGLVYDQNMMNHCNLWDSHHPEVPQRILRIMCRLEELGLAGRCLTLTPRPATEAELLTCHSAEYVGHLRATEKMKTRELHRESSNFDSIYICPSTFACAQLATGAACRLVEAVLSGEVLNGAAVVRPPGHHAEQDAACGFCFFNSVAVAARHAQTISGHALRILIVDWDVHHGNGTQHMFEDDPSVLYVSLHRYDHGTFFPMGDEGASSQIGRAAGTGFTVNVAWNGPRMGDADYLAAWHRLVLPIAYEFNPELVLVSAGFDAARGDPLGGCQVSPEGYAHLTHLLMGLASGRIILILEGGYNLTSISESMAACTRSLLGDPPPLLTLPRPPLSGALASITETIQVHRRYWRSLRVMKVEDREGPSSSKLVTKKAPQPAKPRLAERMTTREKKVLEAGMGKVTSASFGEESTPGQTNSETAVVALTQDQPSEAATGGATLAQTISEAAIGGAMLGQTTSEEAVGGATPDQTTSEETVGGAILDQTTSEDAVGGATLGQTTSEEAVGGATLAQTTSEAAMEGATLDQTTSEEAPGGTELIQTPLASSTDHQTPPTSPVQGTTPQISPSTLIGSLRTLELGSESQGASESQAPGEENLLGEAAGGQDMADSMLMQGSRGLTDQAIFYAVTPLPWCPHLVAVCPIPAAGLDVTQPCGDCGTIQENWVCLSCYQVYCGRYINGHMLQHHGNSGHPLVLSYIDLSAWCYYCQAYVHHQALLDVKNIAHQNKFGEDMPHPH

CCC(=O)CCCCC[C@H](NC(=O)C1CC12CCOCC2)c1ncc(-c2cc3ccc(C)nc3cc2OC)[nH]1 (single isomer, unassigned) [Compound 407]
IC50 [1]: 3.68 nM
IC50 [2]: > 900 nM

CCC(=O)CCCCC[C@H](NC(=O)C1CC12CCOCC2)c1ncc(-c2cc3ccc(C)nc3cc2OC)o1 (single isomer, unassigned) [Compound 409]
IC50 [2]: > 900 nM

CCC(=O)CCCCC[C@H](NC(=O)C1CC12CCOCC2)c1ncc(-c2cc3ccc(C)nc3cc2OC)o1 (single isomer, unassigned) [Compound 410]
IC50 [2]: > 900 nM

CCC(=O)CCCCC[C@H](NC(=O)C1CC12CCOCC2)c1ncc(-c2cc3ccc(C)nc3cc2OC)[nH]1 (single isomer, unassigned) [Compound 413]
IC50 [1]: 61.9 nM
IC50 [2]: > 900 nM

CCC(=O)CCCCCC(NC(=O)C1CCC2(CC1)OC(=O)c1ncccc12)c1nnc(-c2cc3ccccc3nc2OC)o1 (stereo not shown) [Compound 365]
IC50 [1]: 23.2 nM
IC50 [2]: 1940 nM

CCC(=O)CCCCC[C@H](NC(=O)[C@H]1CC[C@@]2(CC1)OC(=O)c1cccnc12)c1nnc(-c2cc3ccccc3nc2OC)o1 [Compound 366]
IC50 [1]: 37.3 nM
IC50 [2]: 2760 nM

CCC(=O)CCCCC[C@H](NC(=O)[C@H]1CC[C@]2(CC1)OC(=O)c1ncccc12)c1nnc(-c2cc3ccccc3nc2OC)o1 [Compound 367]
IC50 [1]: 10.7 nM
IC50 [2]: 2110 nM

CCC(=O)CCCCC[C@H](NC(=O)[C@H]1CC[C@]2(CC1)OC(=O)c1cccnc12)c1nnc(-c2cc3ccccc3nc2OC)o1 [Compound 368]
IC50 [1]: 20.6 nM
IC50 [2]: 2380 nM

CCC(=O)CCCCC[C@H](NC(=O)C1=NOC2(CCN(C(C)C)CC2)C1)c1nnc(-c2cc3ccccc3nc2OC)o1 [Compound 369]
IC50 [2]: 2500 nM

CCC(=O)CCCCC[C@H](NC(=O)C1=NOC2(CCN(C)CC2)C1)c1nnc(-c2cc3ccccc3nc2OC)o1 [Compound 370]
IC50 [1]: 8.87 nM
IC50 [2]: 1740 nM

CCC(=O)CCCCC[C@H](NC(=O)C1=NOC2(CCN(S(C)(=O)=O)CC2)C1)c1nnc(-c2cc3ccccc3nc2OC)o1 [Compound 371]
IC50 [2]: 4660 nM

CCC(=O)CCCCC[C@H](NC(=O)[C@H]1CC[C@@]2(CC1)OC(=O)c1ccncc12)c1ncc(-c2ccccc2)[nH]1 [Compound 372]
IC50 [1]: 14.1 nM
IC50 [2]: 10200 nM

CCC(=O)CCCCC[C@H](NC(=O)[C@H]1CC[C@@]2(CC1)OC(=O)c1cnccc12)c1ncc(-c2ccccc2)[nH]1 [Compound 373]
IC50 [1]: 18.8 nM
IC50 [2]: 10100 nM

CCC(=O)CCCCC[C@H](NC(=O)[C@H]1CC[C@@]2(CC1)OC(=O)c1ncccc12)c1ncc(-c2ccccc2)[nH]1 [Compound 374]
IC50 [1]: 15.8 nM
IC50 [2]: 11200 nM

CCC(=O)CCCCC[C@H](NC(=O)[C@H]1CC[C@@]2(CC1)OC(=O)c1cccnc12)c1ncc(-c2ccccc2)[nH]1 [Compound 375]
IC50 [1]: 19.9 nM
IC50 [2]: 10200 nM

CCC(=O)CCCCC[C@H](NC(=O)[C@H]1CC[C@]2(CC1)OC(=O)c1ccncc12)c1ncc(-c2ccccc2)[nH]1 [Compound 376]
IC50 [1]: 9.02 nM
IC50 [2]: 10800 nM

CCC(=O)CCCCC[C@H](NC(=O)[C@H]1CC[C@]2(CC1)OC(=O)c1cccnc12)c1ncc(-c2ccccc2)[nH]1 [Compound 378]
IC50 [1]: 7.08 nM
IC50 [2]: 10800 nM

CCC(=O)CCCCC[C@H](NC(=O)C1=NOC2(CCN(C(C)C)CC2)C1)c1ncc(-c2ccccc2)[nH]1 [Compound 379]
IC50 [1]: 4.77 nM
IC50 [2]: 8590 nM

CCC(=O)CCCCC[C@H](NC(=O)C1=NOC2(CCN(C(C)=O)CC2)C1)c1ncc(-c2ccccc2)[nH]1 [Compound 380]
IC50 [1]: 8.92 nM
IC50 [2]: 16200 nM

CCC(=O)CCCCC[C@H](NC(=O)C1=NOC2(CCN(C(=O)OC)CC2)C1)c1ncc(-c2ccccc2)[nH]1 [Compound 381]
IC50 [1]: 26.1 nM
IC50 [2]: 32300 nM

CCC(=O)CCCCC[C@H](NC(=O)C1=NOC2(CCN(C)CC2)C1)c1ncc(-c2ccccc2)[nH]1 [Compound 382]
IC50 [1]: 8.02 nM
IC50 [2]: 12100 nM

CCC(=O)CCCCC[C@H](NC(=O)C1=NOC2(CCN(S(C)(=O)=O)CC2)C1)c1ncc(-c2ccccc2)[nH]1 [Compound 383]
IC50 [1]: 16.7 nM
IC50 [2]: 16100 nM

CCC(=O)CCCCC[C@H](NC(=O)CCN1C(=O)C(CC)=NC12CCOCC2)c1ncc(-c2ccccc2)[nH]1 [Compound 384]
IC50 [1]: 12.6 nM
IC50 [2]: 10300 nM

CCC(=O)CCCCC[C@H](NC(=O)C1=NOC2(CCN(C)CC2)C1)c1ncc(-c2cc3ccc(=O)n(C)c3cc2F)o1 [Compound 386]
IC50 [1]: 12.4 nM
IC50 [2]: > 900 nM

CCC(=O)CCCCC[C@H](NC(=O)C1=NOC2(CCN(CC3CC3)CC2)C1)c1ncc(-c2cc3ccc(=O)n(C)c3cc2F)o1 [Compound 387]
IC50 [1]: 48.1 nM
IC50 [2]: > 900 nM

CCC(=O)CCCCC[C@H](NC(=O)[C@H]1CC12CCN(C)CC2)c1ncc(-c2cc3ocnc3cc2F)o1 [Compound 389]
IC50 [1]: 30.2 nM
IC50 [2]: > 900 nM

CCC(=O)CCCCC[C@H](NC(=O)C1=NOC2(CCN(C)CC2)C1)c1ncc(-c2ccc(Cl)cc2OC)o1 [Compound 390]
IC50 [1]: 39.4 nM
IC50 [2]: 309 nM

CCC(=O)CCCCC[C@H](NC(=O)C1=NOC2(CCN(C)CC2)C1)c1ncc(-c2ccc(-c3ccccn3)cc2OC)o1 [Compound 391]
IC50 [1]: 18.6 nM
IC50 [2]: > 900 nM

CCC(=O)CCCCC[C@H](NC(=O)[C@H]1CC12CCN(CC1CC1)CC2)c1ncc(-c2ccc3nc(C)ccc3c2)[nH]1 [Compound 393]
IC50 [1]: 0.05 nM
IC50 [2]: 325 nM

CCC(=O)CCCCC[C@H](NC(=O)C1=NOC2(CCN(C)CC2)C1)c1ncc(-c2ccc(-c3ccncc3)cc2OC)o1 [Compound 395]
IC50 [1]: 6.78 nM
IC50 [2]: > 900 nM

CCC(=O)CCCCC[C@H](NC(=O)C1=NOC2(CCN(C)CC2)C1)c1ncc(-c2cc3ccc(N(C)C)nc3cc2OC)o1 [Compound 397]
IC50 [1]: 2.66 nM
IC50 [2]: > 900 nM

CCC(=O)CCCCC[C@H](NCC1CC1)c1ncc(-c2cc3ccc(C)nc3cc2OC)[nH]1 [Compound 398, (S)-9-((cyclopropylmethyl)amino)-9-(5-(7-methoxy-2-methylquinolin-6-yl)-1H-imidazol-2-yl)nonan-3-one]
IC50 [1]: 241 nM
IC50 [2]: > 900 nM

CCC(=O)CCCCC[C@H](NC(=O)[C@H]1CC12CCN(CC1CC1)CC2)c1ncc(-c2cc3ccc(=O)n(C)c3cc2F)o1 [Compound 400]
IC50 [2]: > 900 nM

CCC(=O)CCCCC[C@H](NCC1CN(C)C1)c1ncc(-c2cc3ccc(C)nc3cc2OC)o1 [Compound 401, (9S)-9-[5-(7-methoxy-2-methylquinolin-6-yl)-1,3-oxazol-2-yl]-9-{[(1-methylazetidin-3-yl)methyl]amino}nonan-3-one]
IC50 [1]: 51.3 nM
IC50 [2]: > 900 nM

CCN[C@@H](CCCCCC(=O)CC)c1ncc(-c2cc3ccc(C)nc3cc2OC)[nH]1 [Compound 403]
IC50 [1]: 283 nM
IC50 [2]: > 900 nM

CCC(=O)CCCCC[C@H](NCc1ccncc1)c1ncc(-c2cc3ccc(C)nc3cc2OC)[nH]1 [Compound 404]
IC50 [1]: 501 nM
IC50 [2]: > 900 nM

CCC(=O)CCCCC[C@H](NC(=O)[C@H]1CC12CCN(C)CC2)c1ncc(-c2cc3ccncc3cc2OC)o1 [Compound 405]
IC50 [1]: 0.7 nM
IC50 [2]: 163 nM

CCC(=O)CCCCC[C@H](NC(=O)[C@H]1CC12CCN(C)CC2)c1ncc(-c2cc3ccc(N(C)C)nc3cc2OC)o1 [Compound 406]
IC50 [1]: 1.05 nM
IC50 [2]: > 900 nM

CCC(=O)CCCCC[C@H](NC(=O)[C@H]1CC12CCN(C)CC2)c1ncc(-c2cc3ocnc3cc2OC)o1 [Compound 408]
IC50 [1]: 7.37 nM
IC50 [2]: 647 nM

CCC(=O)CCCCCC(N)(COC)c1ncc(-c2cc3ccc(C)nc3cc2OC)[nH]1 (stereo not shown) [Compound 414, 9-amino-10-methoxy-9-[5-(7-methoxy-2-methylquinolin-6-yl)-1H-imidazol-2-yl]decan-3-one]
IC50 [1]: > 900 nM
IC50 [2]: > 900 nM

CCC(=O)CCCCC[C@H](NC(=O)C1=NOC2(CCN(C)CC2)C1)c1ncc(-c2cc3ccncc3cc2OC)o1 [Compound 415]
IC50 [1]: 7.82 nM
IC50 [2]: > 900 nM

CCCC(=O)CCCCC[C@H](NC(=O)[C@H]1CC12CCN(CC1CC1)CC2)c1ncc(-c2cc3ccc(C)nc3cc2OC)[nH]1 [Compound 416]
IC50 [1]: 1.11 nM
IC50 [2]: > 900 nM
